US10675286B2, “Heterocyclic compounds and uses thereof” (Infinity Pharmaceuticals, Inc., priority 2014, dated 2020)
“Also recorded” adds a separate entry of the source.

Columns and labels:
[1] = system: CXCL12-induced pAKT in T-cells; assay: CXCL12-induced pAKT in T-cells of CLL patient PBMCs; type: cell-based, human
Excerpt: There was a tight correlation between the EC50s observed in the CXCL12-induced pAKT assay and the T-cell migration assay.

[2] = system: spleen T cell proliferation; assay: Ex vivo T-cell proliferation assay with tumor-derived cells; type: cell-based; settings: compared to tumor derived cells from vehicle treated mice
[3] = system: CXCL12 stimulated pAKT S473 in T cells and monocytes; assay: Ex vivo whole blood CXCL12 stimulation of phospho-AKT, LLC-bearing mice; type: in vivo, mouse; settings: LLC-bearing mice, 3, 7.5 or 15 mg/kg QD PO 12 days, 2 h post dose
Procedure: C57 BL/6 Albino mice were implanted with 1×10^6 cells in a SC injection in the hind flank. The cell implant material was generated from brei that was passaged from mouse to mouse. Treatment started when tumors were between 160-180 mm^3. Mice were dosed for 12 days, QD, PO with vehicle, 15, 7.5 or 3 mg/kg. On day 12 mice were dosed and terminal blood was collected 2 h post dose by cardiac stick collection. Blood was placed in EDTA K2 collection tube and stored at room temp for PD analysis.
Blood from each animal was aliquotted into 2 plates and warmed to 37° C. degrees. PBS was added to one plate as an unstimulated control. Murine CXCL12/SDF-1 was added to the second plate to a final concentration of 800 ng/mL and plate was returned to the 37° C. degree block. After 2 minutes of incubation, blood was lysed and fixed using paraformaldehyde. Samples were washed and frozen until flow cytometric analysis. T cells were gated using an antibody to CD3 and monocytes were gated as LY6G^− LY6C^high. Intracellular pAKT S473 was measured and percent positive was used for graphing.

CT26 colon carcinoma = assay: CT26 allograft colon cancer model; type: in vivo, mouse
Excerpt: CT26 is an N-nitroso-N-methylurethane-(NNMU) induced, undifferentiated mouse colon carcinoma cell line. It is cloned to generate the cell line designated CT26.WT (ATCC CRL-2638). The syngeneic CT26 colon cancer model is established by subcutaneous implantation of CT26 cells into BALB/c mice. This model has been extensively used to study the anti-tumor activity of immunotherapies (Yu et al., Clinical Cancer Research, 2010; Daraiswamy et al., Cancer Research, 2013). […] In some embodiments, a compound provided herein can be administered alone or in combination with an anti-PD-L1.
CT26 is an N-nitroso-N-methylurethane-(NNMU) induced, undifferentiated colon carcinoma cell line. It was cloned to generate the cell line designated CT26.WT (ATCC catalog number CRL-2638). 5-6 week old female, Balb/c mice (Jackson Labs) were implanted subcutaneously with 5×10^5 CT26 cells in 200 μl PBS. CT26 cells were cultured in DMEM supplemented with 10% FBS. Dosing commenced when tumors reached an average volume of […]. Administration of the compounds was performed according to the following Table:
Isotype control (Ultra-LEAF purified rat IgG2b, k isotype control, clone RTK4530, Lot B180477, Biolegend, Cat #70640)
Anti-PD-L1 antibody (Ultra-LEAF purified anti-mouse CD274-B7H1, PD-L1-, clone 10F9G2, Lot B178331, Biolegend, Cat #124318) […]
Body weights and tumor volumes were measured three times per week.

[4] = system: Myeloid Derived Suppressor Cell; assay: Myeloid Derived Suppressor Cell differentiation assay; type: cell-based
[5] = system: T cell proliferation suppressed by CT26 tumor cells; assay: Ex vivo T cell proliferation (CFSE) with cells of CT26 tumors; type: cell-based, mouse; settings: vs tumor cells from vehicle treated mice
Procedure: CT26 was an N-nitroso-N-methylurethane-(NNMU)induced, undifferentiated colon carcinoma cell line. It was cloned to generate the cell line designated CT26.WT (ATCC CRL-2638).
The duration of the study was 1 week under treatment. 5-6 week old female, Balb/c mice (Jackson Labs) implanted subcutaneously with 5×10^5CT26 cells in 100 μl PBS. CT26 cells were cultured in RPMI supplemented with 10% FBS. Dosing commenced when tumors reached an average volume of 500-600 mm^3.
For group 3 (αPD-L1), the mice were dosed once, IP, 200 ug (200 uL from 1 mg/ml stock).
Mice were monitored daily for adverse clinical effects. Body weights and tumor luminescent were measured two times per week. At the end of the study, tumors were harvested and cut into 3 parts; one piece for CTL killing assay, one piece for CSFE proliferation assay and one piece (split into two) for OCT/FFPE.
Spleens from 3 vehicle treated tumor bearing mice were physically dissociated in T cell media and passed through a 70 micron filter. After red cell lysis, the cells were pooled, brought up in PBS and stained with CFSE (invitrogen). After washing, these cells were brought up in 20 ml T cell media. Half the cells received Dynal mouse activator beads (CD3/CD28 crosslinking at a 1:1 concentration). CD3/CD28 beads induce proliferation in splenocytes from tumor bearing mouse (data not shown). […]

GL-261 glioma = GL-261 glioma model, Compound BB with or without temozolomide; type: in vivo, mouse; settings: Compound BB 15 mg/kg QD PO, from start or following temozolomide, vs vehicle
Procedure: TMZ was dosed IP 1×/day for 7 days.
Animals: C57 Albino mice (male) from Jackson Labs, n=80. Parameters Evaluated:
In life: Mice were dosed QD with Compound BB. Temozolomide was dosed QD IP, for 7 days. Tumor measurements and bodyweights were taken 2×/week, but caliper and xenogen measurements.
End point analysis: Tumors were cut in half. One half was cut in half again with ½ fixed in 10% NBF the other was frozen in OCT for frozen sections. The remaining half was processed to single cell suspention and evaluated by FACS.
PD satellite group—8 mice from the TMZ treated mice and 8 mice from the vehicle treated mice were sacrificed on day 7 post treatment. Tumors were processed to single cell suspention and evaluated by FACS.

Lewis Lung Carcinoma = Lewis Lung Carcinoma model; type: in vivo; settings: single agent

C[C@H](NC(=O)c1c(N)nn2cccnc12)c1cc2cccc(C#Cc3cnn(C)c3)c2c(=O)n1-c1ccccc1 [Compound BB]
Inhibition of CXCL12-induced pAKT in T-cells (FIG. 9) [1]: more strongly than a PI3K-δ inhibitor | inhibition of spleen T cell proliferation by cells isolated from tumors of treated mice [2]: less inhibitory | Ex vivo whole blood CXCL12 stimulation of phospho-AKT in T cells (FIG. 58) [3]: inhibits the ex vivo whole blood stimulation of phosphor-AKT in T cells | Ex vivo whole blood CXCL12 stimulation of phospho-AKT in monocytes (FIG. 59) [3]: inhibits the ex vivo whole blood stimulation of phosphor-AKT in monocytes | MDSC expansion after cyclophosphamide treatment (FIG. 28) (CT26 colon carcinoma; CT26 model, 5-9 day time frame): decreased | Monocytic iMCs (flow cytometry, FIG. 38B) (CT26 colon carcinoma; CT26 subcutaneous tumors): monocytic iMCs were decreased | ARG1 [4]: suppresses | VEGF [4]: suppresses | Inhibition of spleen T cell proliferation by tumor cells of treated mice (FIGS. 55, 56) [5]: less inhibitory of spleen T cell proliferation; also recorded: can release the suppression | Tumor volume (FIGS. 53, 54) (GL-261 glioma): effective in reducing the tumor volume; also recorded: significant reduction in tumor volume | activity in the Lewis Lung Carcinoma model (Lewis Lung Carcinoma): single agent activity
